Earlier results in US20240299501A1, “COMPOSITION AND METHODS OF TREATMENT USING TRANSDERMAL HORMONE SUPPLEMENTATION” (Xygenyx Inc., priority 2023, published 2024).

How the values were obtained:
[1] = in the human body
[2] = tested on: wide dynamic range neurons in the ventroposterolateral nucleus of the thalamus; conditions: stated as 'is believed'
[3] = single penetration enhancer

| Molecule | increase of drug uptake via the transdermal route (factor) [3] | further results |
| --- | --- | --- |
| HGH: hormone comprising a peptide chain that is synthesized in the pituitary gland | – | biological half-life [1]: 10-20 minutes |
| CCCCCc1cc(O)c2c(c1)OC(C)(C)C1CCC(C)=CC21 (stereo not shown) [THC, Δ-9-tetrahydrocannabinol] | – | potency relative to morphine in mediating pain [2]: ten times more powerful than morphine |
| CC12CCC(CC1)C(C)(C)O2 [eucalyptol, 1,8-epoxy-p-menthane] | more than 10 | – |
| CC(C)[C@@H]1CC[C@@H](C)C[C@H]1O [Menthol] | ≥ 10 | – |
